Assay results reported in US11970479B2, “3-(1H-pyrazol-4-yl)pyridine allosteric modulators of the M4 muscarinic acetylcholine receptor” (Merck Sharp & Dohme LLC, priority 2018, dated 2024).

Target: T1, human M4 muscarinic acetylcholine receptor (Homo sapiens, UniProt P08173)
T1 construct: expressed in transfected cells
T1 sequence (P08173 1-479): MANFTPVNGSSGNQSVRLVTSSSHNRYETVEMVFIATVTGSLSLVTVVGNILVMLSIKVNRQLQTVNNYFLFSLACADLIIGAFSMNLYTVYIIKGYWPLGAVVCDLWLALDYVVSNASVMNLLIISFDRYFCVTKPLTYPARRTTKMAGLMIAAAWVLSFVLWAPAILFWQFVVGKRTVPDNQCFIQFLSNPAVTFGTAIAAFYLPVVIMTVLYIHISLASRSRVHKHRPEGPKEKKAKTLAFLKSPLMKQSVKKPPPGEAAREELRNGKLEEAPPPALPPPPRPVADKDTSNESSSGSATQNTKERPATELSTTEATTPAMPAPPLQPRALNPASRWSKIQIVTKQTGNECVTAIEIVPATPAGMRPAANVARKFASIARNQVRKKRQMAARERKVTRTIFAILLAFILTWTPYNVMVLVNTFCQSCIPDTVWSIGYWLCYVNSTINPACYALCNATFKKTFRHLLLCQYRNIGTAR
Assay: human FLIPR-based M4 PAM assay (CHO-K1 cells with human M4 receptor and Gαqi5, calcium dye fluorescence, EC20 acetylcholine)
Type: cell-based
Conditions: inflection point (IP) of the dose response curve, human M4 receptor/Gαqi5, acetylcholine at 20% of maximum response, read-out: M4PAM Hu IP
Experimental: (§1) In a typical experiment the M4 muscarinic acetylcholine receptor modulating activity of the compounds of the present invention was determined in accordance with the following experimental method. CHO-K1 cells stably transfected with human M4 receptor and chimeric G-protein Gαqi5 (Coward P, et al., Analytical Biochemistry, 270:242-248 (1999)) are thawed from liquid N2 storage, resuspended in growth medium, plated in black, clear bottom 384 well plates, and incubated 16-20 hours at 37° C., 5% CO2. On the day of assay, growth medium is removed, the cells are washed 2 times with wash buffer, and cells are incubated in dye loading buffer at 37° C., 5% CO2 for ˜1 hour. Following dye loading the cell plates are placed in a FLIPR Tetra instrument and while monitoring dye fluorescence (excitation […]), 10 uL of test substance at increasing concentrations is added, and fluorescence values are recorded for 4 min. Next, 10 uL of acetylcholine is added (final concentration calculated so as to achieve 20% of the maximum acetycholine response), and the fluorescence reading is continued for 3.5 min. In some cases, a third addition of acetylcholine (final concentration calculated to achieve 70% of the maximal acetylcholine response) is performed. The resulting dose response curves are fit to a 4 parameter logistic equation and the final result is determined as the inflection point (IP) of the curve
as §1, with “CHO-K1” for “In a typical experiment the M4 muscarinic acetylcholine receptor modulating activity of the compounds of the present invention was determined in accordance with the following experimental method. CHO-K1”, “Gαqi5” for “Gαqi5 (Coward P, et al., Analytical Biochemistry, 270:242-248 (1999))”, “performed.” for “performed. The resulting dose response curves are fit to a 4 parameter logistic equation and the final result is determined as the inflection point (IP) of the curve”

How did the EC50 turn out when `N#Cc1ccc(-c2cnn(CC3CC34CC4)c2)c(-c2ccc3cccnc3c2)n1` (stereo not drawn) [Example 29, 6-quinolin-7-yl-5-[1-(spiro [2.2]pent-1-ylmethyl)-1H-pyrazol-4-yl]pyridine-2-carbonitrile] was run?
The EC50 was 72 nM.

How did the EC50 turn out when `COc1cc2ccc(-c3nc(Cl)c(C)cc3-c3cnn(CCC(C)(C)OC)c3)cc2nn1` [Example 30, 7-{6-chloro-3-[1-(3-methoxy-3-methylbutyl)-1H-pyrazol-4-yl]-5-methylpyridin-2-yl}-3-methoxycinnoline] was run?
Its EC50 is 143 nM.

How did the EC50 turn out when `COc1cc2ccc(-c3nc(Cl)c(C)cc3-c3cnn(CC(C)(C)OC)c3)cc2nn1` [Example 31, 7-{6-chloro-3-[1-(2-methoxy-2-methylpropyl)-1H-pyrazol-4-yl]-5-methylpyridin-2-yl}-3-methoxycinnoline] was run?
The EC50 was 76 nM.

With `COc1cc2ccc(-c3nc(C#N)c(C)cc3-c3cnn(CCC(C)(C)OC)c3)cc2nn1` [Example 32, 6-(3-methoxycinnolin-7-yl)-5-[1-(3-methoxy-3-methylbutyl)-1H-pyrazol-4-yl]-3-methylpyridine-2-carbonitrile] as the molecule, how does the EC50 read?
The EC50 was 113 nM.

With `COc1cc2ccc(-c3nc(C#N)c(C)cc3-c3cnn(CC(C)(C)OC)c3)cc2nn1` [Example 33, 6-(3-methoxycinnolin-7-yl)-5-[1-(2-methoxy-2-methylpropyl)-1H-pyrazol-4-yl]-3-methylpyridine-2-carbonitrile] as the molecule, how does the EC50 read?
The EC50 was 84 nM.

Which EC50 does the source give for `COc1cc2ccc(-c3nc(C)c(C)cc3-c3cnn(CCC(C)(C)OC)c3)cc2nn1` [Example 34, 3-methoxy-7-{3-[1-(3-methoxy-3-methylbutyl)-1H-pyrazol-4-yl]-5,6-dimethylpyridin-2-yl}cinnoline] here?
The EC50 was 141 nM.

Which EC50 does the source give for `COc1cc2ccc(-c3nc(C)c(C)cc3-c3cnn(CC(C)(C)OC)c3)cc2nn1` [Example 35, 3-methoxy-7-{3-[1-(2-methoxy-2-methylpropyl)-1H-pyrazol-4-yl]-5,6-dimethylpyridin-2-yl}cinnoline] here?
Its EC50 is 187 nM.

For `COc1cc2ccc(-c3nc(C)ccc3-c3cnn(CCC(C)(C)F)c3F)cc2nn1` [Example 36, 7-{3-[5-fluoro-1-(3-fluoro-3-methylbutyl)-1H-pyrazol-4-yl]-6-methylpyridin-2-yl}-3-methoxycinnoline], which EC50 is on record?
Its EC50 is 14 nM.

For `CC(C)(C)Cn1cc(-c2ccc(C#N)nc2-c2ccc3cccnc3c2)cn1` [Example 37, 5-[1-(2,2-dimethylpropyl)-1H-pyrazol-4-yl]-6-quinolin-7-ylpyridine-2-carbonitrile], which EC50 is on record?
The EC50 was 25 nM.

How did the EC50 turn out when `COc1cc2ccc(-c3nc(C#N)ccc3-c3cnn(CC(C)(C)C)c3)cc2nn1` [Example 38, 5-[1-(2,2-dimethylpropyl)-1H-pyrazol-4-yl]-6-(3-methoxycinnolin-7-yl)pyridine-2-carbonitrile] was run?
Its EC50 is 41 nM.

With `Cc1ccc2ccc(-c3nc(C#N)ccc3-c3cnn(CC(C)(C)C)c3)cc2n1` [Example 39, 5-[1-(2,2-dimethylpropyl)-1H-pyrazol-4-yl]-6-(2-methylquinolin-7-yl)pyridine-2-carbonitrile] as the molecule, how does the EC50 read?
The EC50 was 92 nM.

With `CC(C)(C)Cn1cc(-c2ccc(C#N)nc2-c2cnc3cccnc3c2)cn1` [Example 40, 5-[1-(2,2-dimethylpropyl)-1H-pyrazol-4-yl]-6-(1,5-naphthyridin-3-yl)pyridine-2-carbonitrile] as the molecule, how does the EC50 read?
Its EC50 is 208 nM.

For `CC(C)(C)Cn1cc(-c2ccc(C#N)nc2-c2ccc3cc(F)cnc3c2)cn1` [Example 41, 5-[1-(2,2-dimethylpropyl)-1H-pyrazol-4-yl]-6-(3-fluoroquinolin-7-yl)pyridine-2-carbonitrile], which EC50 is on record?
The EC50 was 39 nM.

With `CC(C)(C)Cn1cc(-c2ccc(C#N)nc2-c2ccc3cc(Cl)nnc3c2)cn1` [Example 42, 6-(3-chlorocinnolin-7-yl)-5-[1-(2,2-dimethylpropyl)-1H-pyrazol-4-yl]pyridine-2-carbonitrile] as the molecule, how does the EC50 read?
Its EC50 is 47 nM.

Which EC50 does the source give for `CC(C)(C)Cn1cc(-c2ccc(C#N)nc2-c2ccc3ccnnc3c2)cn1` [Example 43, 6-cinnolin-7-yl-5-[1-(2,2-dimethylpropyl)-1H-pyrazol-4-yl]pyridine-2-carbonitrile] here?
The EC50 was 112 nM.

With `N#Cc1ccc(-c2cnn(CC3(C(F)(F)F)CC3)c2)c(-c2ccc3cccnc3c2)n1` [Example 44, 6-quinolin-7-yl-5-(1-{[1-(trifluoromethyl)cyclopropyl]methyl}-1H-pyrazol-4-yl)pyridine-2-carbonitrile] as the molecule, how does the EC50 read?
The EC50 was 61 nM.

For `COc1cc2ccc(-c3nc(C#N)ccc3-c3cnn(CC4(C(F)(F)F)CC4)c3)cc2nn1` [Example 45, 6-(3-methoxycinnolin-7-yl)-5-(1-{[1-(trifluoromethyl)cyclopropyl]methyl}-1H-pyrazol-4-yl)pyridine-2-carbonitrile], which EC50 is on record?
Its EC50 is 60 nM.

`CC(C)C(O)Cn1cc(-c2ccc(C#N)nc2-c2ccc3cccnc3c2)cn1` (stereo not drawn) [Example 46, 5-[1-(2-hydroxy-3-methylbutyl)-1H-pyrazol-4-yl]-6-quinolin-7-ylpyridine-2-carbonitrile] was tested. Which EC50 did it give?
The EC50 was 169 nM.

With `N#Cc1nc(-c2ccc3cccnc3c2)c(-c2cnn(CC3(C(F)(F)F)CC3)c2)cc1F` [Example 47, 3-fluoro-6-quinolin-7-yl-5-(1-{[1-(trifluoromethyl)cyclopropyl]methyl}-1H-pyrazol-4-yl)pyridine-2-carbonitrile] as the molecule, how does the EC50 read?
The EC50 was 88 nM.

With `COc1ccc(-c2cnn(CCC(C)C)c2)c(-c2ccc3cccnc3c2)n1` [Example 48, 7-{6-methoxy-3-[1-(3-methylbutyl)-1H-pyrazol-4-yl]pyridine-2-yl}quinoline] as the molecule, how does the EC50 read?
The EC50 was 220 nM.

How did the EC50 turn out when `CC(C)CCn1cc(-c2ccc(C(F)(F)F)nc2-c2ccc3cccnc3c2)cn1` [Example 49, 7-{3-[1-(3-methylbutyl)-1H-pyrazol-4-yl]-6-(trifluoromethyl)pyridin-2-yl}quinoline] was run?
Its EC50 is 84 nM.

How did the EC50 turn out when `Cc1ccnc(-c2ccc3cccnc3c2)c1-c1cnn(CCC(C)C)c1` [Example 50, 7-{4-methyl-3-[1-(3-methylbutyl)-1H-pyrazol-4-yl]pyridin-2-yl}quinoline] was run?
Its EC50 is 188 nM.

Which EC50 does the source give for `COc1ccnc(-c2ccc3cccnc3c2)c1-c1cnn(CCC(C)C)c1` [Example 51, 7-{4-methoxy-3-[1-(3-methylbutyl)-1H-pyrazol-4-yl]pyridin-2-yl}quinoline] here?
Its EC50 is 414 nM.

How did the EC50 turn out when `CC(C)CCn1cc(-c2cc(Cl)cnc2-c2ccc3cccnc3c2)cn1` [Example 52, 7-{5-chloro-3-[1-(3-methylbutyl)-1H-pyrazol-4-yl]pyridin-2-yl}quinoline] was run?
The EC50 was 145 nM.

How did the EC50 turn out when `COc1cc2ccc(-c3ncc(Cl)cc3-c3cnn(CCC(C)C)c3)cc2nn1` [Example 53, 7-{5-chloro-3-[1-(3-methylbutyl)-1H-pyrazol-4-yl]pyridin-2-yl}-3-methoxycinnoline] was run?
Its EC50 is 131 nM.

How did the EC50 turn out when `COc1cc2ccc(-c3nc(C(F)F)ccc3-c3cnn(CC(C)(C)C)c3)cc2nn1` [Example 54, 7-{6-(difluoromethyl)-3-[1-(2,2-dimethylpropyl)-1H-pyrazol-4-yl]pyridin-2-yl}-3-methoxycinnoline] was run?
The EC50 was 53 nM.

`CC(C)(C)Cn1cc(-c2cc(F)cnc2-c2ccc3cccnc3c2)cn1` [Example 55, 7-{3-[1-(2,2-dimethylpropyl)-1H-pyrazol-4-yl]-5-fluoropyridin-2-yl}quinoline] was tested. Which EC50 did it give?
The EC50 was 108 nM.

`Cc1nc(-c2ccc3cccnc3c2)c(-c2cnn(CC3(C(F)(F)F)CC3)c2)cc1C#N` [Example 56, 2-methyl-6-quinolin-7-yl-5-(1-{[1-(trifluoromethyl)cyclopropyl]methyl}-1H-pyrazol-4-yl)pyridine-3-carbonitrile] was tested. Which EC50 did it give?
Its EC50 is 275 nM.

With `COc1cc2ccc(-c3nc(C)c(C#N)cc3-c3cnn(CC4(C(F)(F)F)CC4)c3)cc2nn1` [Example 57, 6-(3-methoxycinnolin-7-yl)-2-methyl-5-(1-{[1-(trifluoromethyl)cyclopropyl]methyl}-1H-pyrazol-4-yl)pyridine-3-carbonitrile] as the molecule, how does the EC50 read?
Its EC50 is 243 nM.

`CC(C)(C)Cn1ncc(-c2ccc(C#N)nc2-c2ccc3cccnc3c2)c1F` [Example 58, 5-[1-(2,2-dimethylpropyl)-5-fluoro-1H-pyrazol-4-yl]-6-quinolin-7-ylpyridine-2-carbonitrile] was tested. Which EC50 did it give?
Its EC50 is 51 nM.
